# Experimental data reported in the supplement of paper PMC10307832.
# Columns and labels:
# Experiment in all cases: relative viability (nuclei count vs DMSO), 5 days (fraction); higher = more cells survive
# OSI-027 = compound: COc1cccc2cc(-c3nc([C@H]4CC[C@H](C(=O)O)CC4)n4ncnc(N)c34)[nH]c12 [OSI-027]
# Method in brief: (§1)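 Cells of lung cancer lines were placed in 1536-well plates and kept overnight at 37 °C. Pinning then delivered five library-drug doses (not always all listed), spaced by √10, onto plates anchored with vehicle, and the cells were left 5 days without changing medium. One step fixed, permeabilised and stained them with Hoechst, and MetaXpress counted nuclei in 4× images. Viability, as a median over plates, is treated-well nuclei divided by vehicle-well nuclei, with acceptance only at control CV below 25% and at least one doubling.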
# Alpelisib = compound: Cc1nc(NC(=O)N2CCC[C@H]2C(N)=O)sc1-c1ccnc(C(C)(C)C(F)(F)F)c1 [Alpelisib]
# Method in brief: as §1
# Vemurafenib = compound: CCCS(=O)(=O)Nc1ccc(F)c(C(=O)c2c[nH]c3ncc(-c4ccc(Cl)cc4)cc23)c1F [Vemurafenib]
# Method in brief: as §1
# Vemurafenib + Phenformin = compound: CCCS(=O)(=O)Nc1ccc(F)c(C(=O)c2c[nH]c3ncc(-c4ccc(Cl)cc4)cc23)c1F [Vemurafenib] + N=C(N)NC(=N)NCCc1ccccc1 [Phenformin] (partner 250 µM)
# Method in brief: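 Nuclei were stained with Hoechst during a one-step fixation (final 0.05% Triton X-100, 1% formaldehyde, 1 ug/ml Hoechst) carried out 5 days after dosing, then counted on 4× images. The cells, lung cancer lines in 1536-well plates, had been dosed by pin tool the day after seeding with one drug alone or a fixed anchor-drug dose plus five library-drug doses (not always all listed) in √10 steps. Relative viability is the nuclei count in treated wells divided by that in vehicle wells, and each value is the median of duplicate plates.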
Cell Line,relative viability (OSI-027; 0.01 µM),relative viability (OSI-027; 0.03162 µM),relative viability (OSI-027; 0.1 µM),relative viability (OSI-027; 0.3162 µM),"relative viability (OSI-027; 0.5 µM, anchor plate)",relative viability (OSI-027; 1 µM),relative viability (Alpelisib; 0.04 µM),relative viability (Alpelisib; 0.1265 µM),relative viability (Alpelisib; 0.4 µM),relative viability (Alpelisib; 1.265 µM),"relative viability (Alpelisib; 2 µM, anchor plate)",relative viability (Alpelisib; 4 µM),relative viability (Vemurafenib; 0.03162 µM),relative viability (Vemurafenib; 0.1 µM),relative viability (Vemurafenib; 0.3162 µM),relative viability (Vemurafenib; 1 µM),relative viability (Vemurafenib + Phenformin; first compound 0.03162 µM),relative viability (Vemurafenib + Phenformin; first compound 0.1 µM),relative viability (Vemurafenib + Phenformin; first compound 0.3162 µM),relative viability (Vemurafenib + Phenformin; first compound 1 µM)
201T,0.98,0.999,0.972,0.968,0.757,0.733,0.985,0.974,0.994,0.873,1.01,0.816,0.954,0.951,0.971,0.968,0.421,0.491,0.42,0.456
A549,0.95,0.839,0.94,0.788,–,0.34,0.905,0.877,0.953,0.774,0.84,0.538,0.939,0.942,0.945,0.963,0.163,0.154,–,0.146
A-427,0.891,0.946,0.794,0.722,0.47,0.619,0.98,0.886,0.965,0.871,1.09,0.911,0.953,0.973,0.852,0.989,0.317,0.313,0.267,0.365
ABC-1,0.874,1.03,0.825,0.585,0.499,0.547,1.13,0.77,0.886,0.662,1.05,0.608,0.808,0.886,0.711,0.945,0.241,0.297,0.276,0.246
BEN,0.882,0.82,0.647,0.475,0.296,0.299,0.99,0.913,1.15,1.01,1.04,0.847,0.923,0.987,0.569,0.8,0.255,0.299,–,0.249
CAL-12T,0.99,0.988,0.944,0.857,0.702,0.528,0.999,0.989,1.09,0.963,1.14,0.955,0.961,0.892,1.01,0.935,0.538,0.453,0.602,0.552
COR-L23,1.11,0.94,1.04,0.943,0.769,0.537,0.959,1.09,1.08,0.837,0.739,0.786,0.943,0.979,0.927,1.09,0.38,0.464,0.334,0.435
COR-L 105,0.907,0.945,0.814,0.835,0.775,0.762,0.931,1,1.21,0.876,1.03,0.853,0.772,–,0.908,1.03,0.399,–,–,0.5
